“And” between values parts separate entries of the source, which are not always exact repeats. Equal values may be shown once.

In general, % inhibition refers to how much of the control response was suppressed.

Assay [1] concerns Strep. thermophilus cells. Nature of the assay: Visual antibiotic assay in milk with lyophilized bacteria subjected to osmotic changes (MTT colour). It counts as cell-based, Streptococcus thermophilus (ATCC 14485). How it is done: Keep cold until use. • (b) To each 1 mL milk specimen or controls add 0.053 gr glucose and 0.1 mL of rehydrated bacterial suspension obtained in (a) above. Mix and incubate at 42°C for 25 min. • (c) Add 2 mL of a chromogenic mixture, containing 0.5 % glucose and 0.175 mg/mL MTT in water to each of the specimens and controls. Mix and incubate for 5 min at 42°C. • (d) Visually examine the color of each specimen and compare it to the color of the control. A color density lower than the color of the control indicates antibiotic activity in the specimen. Table 5 below summarizes the sensitivity of the visual assay for various antibiotic drugs, added to antibiotic free milk specimens.

Assay [2] concerns Strep. thermophilus cells. Nature of the assay: Detection of Penicillin G in milk by inhibition of MTT reduction in Strep. thermophilus cells, butanol extraction, OD 570 nm. It is filed as cell-based, Streptococcus thermophilus (ATCC 14485). The procedure: • (a) Streak Streptococcus thermophilus (ATCC 14485) suspension on solid medium, comprising 10 % Difco skim milk, 0,5 % Difco yeast extract, 2 % Agar in distilled water. Distinct colonies should emerge after overnight incubation at 42°C. • (b) Suspended a colony in 10 mL of a liquid medium, comprising 10 % Difco skim milk and 0.5 % Difco yeast extract in water (medium A). Incubate the suspension overnight at 42°C in 12 mL plastic, disposable centrifuge test tubes. • (c) Dilute the resultant suspension 1:10 into medium A and incubate at 42°C until the pH of the medium drops to 5.0 (about 2hrs). The resulting viable cell concentration is 1-2x10⁸/1mL. • (d) Cell concentration can be increased by adding 1N NaOH solution until the pH is raised to 6.2, and continuing incubation at 42°C until the pH drops again to 5.0. This cycle can be repeated 5-7 times until the culture becomes stationary at 1-2x10⁹ cells/mL. • (e) Adjust cell concentration to 1 x 10⁸ cells mL and store at 6-10°C for up to 24 hrs for use in antibiotic assay. Alternatively, distribute 2 mL aliquots of the suspension into 12 mL Penicillin vials (24 x 45 mm), freeze in liquid nitrogen and dry on refrigerated shelves of a stoppering, programmable lyophilizer, employing a 48-72 hour program.
• (a) Add 2 mL of distilled water to each vial of dried Strep. thermophilus cells, prepared as described in Example 1. Freshly grown Strep. thermophilus at 1x10⁸ cells/mL are used without any treatment. • (b) Construct reaction mixtures for the detection of antibiotic activity in milk specimens from 0.4 mL cell suspension (fresh or rehydrated lyophilized), 1.6 mL milk specimen, 0.05 mL 10 % Difco Yeast Extract and 0.05 mL 10 % Difco Tryptose. Include at least one control milk specimen, known not to contain any antibiotic drug, whenever the Antibiotic assay is employed. • (c) Incube the complete antibiotic exposure mixtures of the control and unknown milk specimens for 25 minutes at 42°C. • (d) Upon completion of the incubation mix 0.4 mL aliquots of all reaction mixtures with 1.6 mL of 0.5 % glucose, 0.175 mg/mL MTT (3-[4,5-Dimethylthiazol-2-yl]-2.5 diphenyltetrazolium bromide) in water, and incubate for 5 minutes. The amount of color resulting from MTT reduction can be estimated by one of the methods detailed in Example 3.
Transfer a 0.75 mL aliquot of the reaction mixture to a 2 mL microcentrifuge test tube. Add 0.75 mL 1-Butanol. Agitate on a vortex mixer for 15 seconds. Centrifuge the suspension at 10,000 x g for 2.5 minutes. Transfer 0.6 mL the upper clear, colored phase to a clean microcentrifuge test tube, containing 0.6 mL 1-Butanol. Agitate on a vortex mixer for 15 seconds. Centrifuge the suspension at 10,000 x g for 2.5 minutes. Transfer 1 mL the upper clear, colored phase to a clean cuvette. Determine the color density at 570 nm.
Milk specimens containing 3.5 or 7 mIU/mL of Penicillin G were tested with lyophilized Strep. thermophilus organisms, as described in Example 2. Color development for each antibiotic concentration was carried out either with the MTT solution as described in section (d) of Example 2, which is hypotonic or with the same solution, made isotonic by the addition of sucrose to 0.3M final concentration.
The amount of MTT color produced was determined by measuring the optical density of butanol extract made from the reaction mixtures (example 3 (d)).
Milk specimens containing 1-14 mIU:mL Penicillin G, were tested as described in Example 2 for lyophilized bacteria.
Milk specimens, containing 7 mIU/mL of Penicillin G were tested as described in Example 2 for lyophilized Strep. thermophilus cultivated to high density by pH adjustments. Incubation times of the milk specimens with the indicator bacteria varied between 10 and 25 minutes. Incubation with the MTT solution varied between 5 and 10 minutes. The amount of MTT color produced was determined by measuring the optical density of butanol extract made from the reaction mixtures (example 3 (d)). […]

The test system of assay [3] is Strep. thermophilus cells. The assay is described as above. It counts as cell-based, Streptococcus thermophilus (ATCC 14485). Conditions: isotonic MTT solution (0.3M sucrose); Penicillin concentration 4; lyophilized cells.
Assay [4] deals with B. stearothermophilus (ATCC 10149) cells. Nature of the assay: Inhibition of MTT colour formation in B. stearothermophilus after pre-incubation in isotonic or hypertonic medium (Tryptic Soy broth). It counts as cell-based, Bacillus stearothermophilus. The conditions noted are these: specimen containing 40 mIU/mL Penicillin G. How it is done: Logarithmic B. stearothermophilus (ATCC 10149) cells were suspended in Difco Tryptic Soy broth with or without 0.8M sucrose, and incubated at 55°C with shaking for 1 hr. […] Control reaction mixture was constructed with bacterial suspension and Tryptic Soy broth. Following a 30 min incubation at 55°C, all reaction mixtures were diluted 1:5 into […] MTT, 0.5 glucose in water and incubation continued for 5 minutes. The color suspension was clarified by vigorously mixing 0.5 mL aliquots with 0.7 mL isoamyl alcohol containing 0.04N hydrochloric acid. The optical density of the clarified mixtures was measured at 570 nm and the inhibition of color formation, relative to the control was calculated and is presented in Table 7.

Assay [5] has as its system B. stearothermophilus ATCC 10149. Nature of the assay: Detection of Penicillin G in milk with B. stearothermophilus cells (MTT reduction). It counts as cell-based, Bacillus stearothermophilus. Conditions: 30 min at 55°C + 10 min MTT. The procedure: The whole reaction mixture is filtered through glass filter paper circles (e.g. Whatman GF/F, 2.5 cm diameter). The color can be estimated visually or measured by a reflecting densitometer, such as Gretag D182 (Gretag Ltd., CH-8105 Regensdorf, Switzerland). • (a) Inoculate B. stearothermophilus ATCC 10149 into a liquid medium constructed from 10 % Difco skim milk and 0.5 % Difco yeast extract in water. Incubate at 55°C with constant (shaking) for 18 hrs. • (b) Dilute the overnight culture 1:20 into fresh liquid medium and continue shaking at 55°C for 2 hrs. • (c) Dilute 1:10 into liquid medium fortified with 0.8M sucrose and continue shaking at 55°C for 2.5 hrs. […] Use immediately or keep on ice until ready to continue. • (d) Mix each Penicillin containing milk specimen with an equal volume of B. stearothermophilus suspension, as obtained in Step (c). Shake for 30 minutes at 55°C. • (e) Add MTT solution, as described in Example 2 (d) and continue shaking for 10 minutes at 55°C. • (f) Determine the amount of MTT dye as described in Example 3(b).
For orientation: Formazan colour is commonly taken as a measure of viable cells.

Where [6] appears, read: added to antibiotic free milk, 25 min at 42°C + 5 min MTT.
Where [7] appears, read: Penicillin Concentration 1 mIU/mL, lyophilized cells.
Where [8] appears, read: Penicillin Concentration 2 mIU/mL, lyophilized cells.
Where [9] appears, read: Penicillin Concentration 4 mIU/mL, lyophilized cells.
Where [10] appears, read: Penicillin Concentration 7 mIU/mL, lyophilized cells.
Setting [11] is: Penicillin Concentration 14 mIU/mL, lyophilized cells.
Where [12] appears, read: dried (lyophilized) cells, 7 mIU/mL Penicillin G in milk.
The mark [13] stands for this setting: hypotonic MTT solution, Penicillin concentration 4, lyophilized cells.
[14] abbreviates: hypotonic MTT solution, Penicillin concentration 7, lyophilized cells.
Setting [15] is: isotonic MTT solution (0.3M sucrose), Penicillin concentration 7, lyophilized cells.
[16] abbreviates: Penicillin G Concentration 16 mIU/mL in milk.
[17] abbreviates: Penicillin G Concentration 32 mIU/mL in milk.

In the case of `CC1(C)S[C@@H]2[C@H](NC(=O)[C@H](N)c3ccccc3)C(=O)N2[C@H]1C(=O)O` [Ampicillin], the “Sensitivity (lowest concentration causing visually detectable decrease in color)” value in assay [1] (setting [6]) was determined as 0.002 µg/mL.

`O=C(N[C@H](CO)[C@H](O)c1ccc([N+](=O)[O-])cc1)C(Cl)Cl` [Chloramphenicol]: in assay [1] (setting [6]), the “Sensitivity (lowest concentration causing visually detectable decrease in color)” value is 2.5 µg/mL.

On to `Cc1onc(-c2ccccc2Cl)c1C(=O)N[C@@H]1C(=O)N2[C@@H]1SC(C)(C)[C@@H]2C(=O)O` [Cloxacillin], for which the “Sensitivity (lowest concentration causing visually detectable decrease in color)” value in assay [1] (setting [6]) amounted to 0.002 µg/mL.

Consider `CN(C)[C@@H]1C(O)=C(C(N)=O)C(=O)[C@@]2(O)C(O)=C3C(=O)c4c(O)cccc4[C@@](C)(O)[C@H]3[C@H](O)[C@@H]12` [Oxytetracycline], for which the “Sensitivity (lowest concentration causing visually detectable decrease in color)” value in assay [1] (setting [6]) turned out to be 0.4 µg/mL.

With `CC1(C)S[C@@H]2[C@H](NC(=O)Cc3ccccc3)C(=O)N2[C@H]1C(=O)O` [Penicillin G], the “Inhibition (%)” value in assay [2] (7 mIU/mL Penicillin G, first incubation 10 min, MTT 5 min (total 15 min), lyophilized high-density cells) was 7%; in assay [2] (7 mIU/mL Penicillin G, first incubation 10 min, MTT 10 min (total 20 min), lyophilized high-density cells), 40% and 42%; in assay [2] (7 mIU/mL Penicillin G, first incubation 15 min, MTT 5 min (total 20 min), lyophilized high-density cells) it was 21%; in assay [2] (7 mIU/mL Penicillin G, first incubation 15 min, MTT 10 min (total 25 min), lyophilized high-density cells) it was 42%; in assay [2] (7 mIU/mL Penicillin G, first incubation 20 min, MTT 5 min (total 25 min), lyophilized high-density cells), 77%; in assay [2] (7 mIU/mL Penicillin G, first incubation 20 min, MTT 10 min (total 30 min), lyophilized high-density cells) it was 53%. Moreover, the “Inhibition (%)” value in assay [2] (7 mIU/mL Penicillin G, first incubation 25 min, MTT 5 min (total 30 min), lyophilized high-density cells) is recorded as 62%; in assay [2] (7 mIU/mL Penicillin G, first incubation 25 min, MTT 10 min (total 35 min), lyophilized high-density cells), 57%; in assay [2] (setting [7]), 17%; in assay [2] (setting [8]) it was 32%; in assay [2] (setting [9]) it was 56%; in assay [2] (setting [10]) it was 74%. In assay [2] (setting [11]), this molecule registered an Inhibition (%) of 80%. Also, the “OD at 570 nm” value is listed as 0.098 in assay [2] (setting [7]); 0.080 in assay [2] (setting [8]); 0.052 in assay [2] (setting [9]); 0.031 in assay [2] (setting [10]); 0.024 in assay [2] (setting [11]); 0.052 in assay [2] (setting [13]). For the same molecule, the “OD at 570 nm” value in assay [2] (setting [14]) came to 0.031; in assay [2] (isotonic MTT solution (0.3M sucrose), Penicillin concentration 4, lyophilized cells), 0.113; in assay [2] (setting [15]), 0.077; in assay [5] (setting [16]), 0.250; in assay [5] (setting [17]) it was 0.155. The “% inhibition” value in assay [2] (setting [12]) came out at 60%; in assay [2] (fresh cells, 7 mIU/mL Penicillin G in milk), 55%; in assay [2] (setting [13]) it was 56%; in assay [2] (setting [14]), 74%; in assay [2] (setting [15]), 34%; in assay [3] it was 3%. Also, the “% inhibition” value in assay [5] (setting [16]) was found to be 34%; in assay [5] (setting [17]), 59%. The “OD 570 nm in 7 mIU/mL Penicillin Specimen” value in assay [2] (setting [12]) was 0.062; in assay [2] (fresh cells, 7 mIU/mL Penicillin G in milk, 25 min at 42°C + 5 min MTT), 0.088. Also, the “concentration detectable in milk” value in assay [2] (lyophilized cells, butanol extraction, OD 570 nm) was found to be 1 mIU/mL. The “% Inhibition with” value in assay [4] (hypertonic pre-incubation medium (0.8M sucrose)) is given as 54%; in assay [4] (isotonic pre-incubation medium (without sucrose)) it was 10%. Besides, the “Sensitivity (lowest concentration causing visually detectable decrease in color)” value in assay [1] (setting [6]) is 3.5 mIU/mL.

Regarding `Nc1ccc(S(=O)(=O)Nc2ncccn2)cc1` [Sulfadiazine], the “Sensitivity (lowest concentration causing visually detectable decrease in color)” value in assay [1] (test conducted in presence of 10 ug.mL trimethoprim, added to the milk specimen) was found to be 20 ug/mL^b.

As to `CN(C)[C@@H]1C(O)=C(C(N)=O)C(=O)[C@@]2(O)C(O)=C3C(=O)c4c(O)cccc4[C@@](C)(O)[C@H]3C[C@@H]12` [Tetracycline], in assay [1] (setting [6]), the “Sensitivity (lowest concentration causing visually detectable decrease in color)” value was 0.2 µg/mL.

In the case of Polymyxin, the “Sensitivity (lowest concentration causing visually detectable decrease in color)” value in assay [1] (setting [6]) turned out to be 10 µg/mL.

The values above are taken from patent EP0418113A2, “Microbiological assay kit and method for detecting antibacterial compounds” (ORGENICS LIMITED, priority 1989, dated 1991).
